Laboratory results reported in ChEMBL document CHEMBL1131662, “Synthesis and structure-activity relationship of potent bicyclic lactam thrombin inhibitors” (Bioorg Med Chem Lett, 1999).

Columns and labels:
Prothrombin [1] = target: T1, Prothrombin (Homo sapiens, UniProt P00734); experiment: In vitro inhibitory activity against human thrombin.
Prothrombin [2] = target: T1, Prothrombin; experiment: In vitro inhibitory activity against human thrombin.(Slow moving component on HPLC)
Prothrombin [3] = target: T1, Prothrombin; experiment: In vitro inhibitory activity against human thrombin.( Fast moving component on HPLC)

Structure (SMILES)	Ki (Prothrombin [1]) [nM]	Ki (Prothrombin [2]) [nM]	Ki (Prothrombin [3]) [nM]
C[C@]12CC[C@@H](c3ccc4nc(C(F)(F)F)ccc4c3)C(=O)N1[C@H](C(=O)NC(CCCN=C(N)N)C(=O)c1nccs1)CS2 (stereo not given in full)	10		
C[C@]12CC[C@H](CCCc3ccccc3)C(=O)N1[C@H](C(=O)NC(CCCN=C(N)N)C(=O)c1nccs1)CS2 (stereo not given in full)	100		
C[C@]12CC[C@@H](CCc3ccccc3)C(=O)N1[C@H](C(=O)NC(CCCN=C(N)N)C(=O)c1nc3ccccc3s1)CS2 (stereo not given in full)	235		
C[C@]12CC[C@@H](c3ccc4nc(C(F)(F)F)ccc4c3)C(=O)N1[C@H](C(=O)NC(CCCN=C(N)N)C(=O)c1nc3ccccc3s1)CS2 (stereo not given in full)	18		
C[C@]12CC[C@@H](CCCc3ccccc3)C(=O)N1[C@H](C(=O)NC(CCCN=C(N)N)C(=O)c1nccs1)CS2 (stereo not given in full)		6	2
C[C@]12CC[C@H](c3ccc4nc(C(F)(F)F)ccc4c3)C(=O)N1[C@H](C(=O)NC(CCCN=C(N)N)C(=O)c1nccs1)CS2 (stereo not given in full)	150		
C[C@]12CC[C@H](CCc3ccccc3)C(=O)N1[C@H](C(=O)NC(CCCN=C(N)N)C(=O)c1nc3ccccc3s1)CS2 (stereo not given in full)	550		
C[C@]12CC[C@@H](Cc3ccccc3)C(=O)N1[C@H](C(=O)NC(CCCN=C(N)N)C(=O)c1nc3ccccc3s1)CS2 (stereo not given in full)	18		
NC(N)=NCCCC(NC(=O)[C@@H]1CS[C@H]2CC[C@H](Cc3ccccc3)C(=O)N21)C(=O)c1nc2ccccc2s1 (stereo not given in full)	1110		
